US20230094176A1, “COMPOUNDS AND METHODS FOR IMPROVING IMPAIRED ENDOGENOUS FIBRINOLYSIS USING HISTONE DEACETYLASE INHIBITORS” (Cereno Scientific AB, priority 2011, published 2023)

Columns and labels:
[1] = tested on: high-risk patients with recent deep vein thrombosis or pulmonary embolus; test: Clinical outcome study for prevention of recurrent venous thromboembolic events; type: in vivo, human
Description: This study is performed in high-risk patients who have experienced a recent deep vein thrombosis or circulatory stable pulmonary embolus to investigate the preventive effect of Vorinostat treatment on the risk for recurrent venous thrombotic events. Patients with a cancer diagnosis who presents with a first episode of a proximal deep venous thrombosis without unstable pulmonary embolism will be included. The patients will receive conventional treatment (i.e warfarin for 3-6 months) and thereafter included in the study. Patients are randomized in a parallel study design to receive double-blind oral treatment with 10 mg Vorinostat or placebo daily, in addition to optimal conventional treatment. The event rate is monitored by Kaplan-Meyer statistics. The primary efficacy endpoint is the composite measure of either mortality, or recurrent deep venous thrombosis or pulmonary embolism. The study is event-driven to a total of 180 events in the placebo group. […] Thus, this study confirms the clinical efficacy and feasibility of using Vorinostat for secondary prevention of venous thromboembolism.
This study is performed in high-risk patients who have experienced a recent deep vein thrombosis or circulatory stable pulmonary embolus to investigate the preventive effect of VPA treatment on the risk for recurrent venous thrombotic events. Patients with a cancer diagnosis and low grade inflammation who present with a first episode of a proximal deep venous thrombosis without unstable pulmonary embolism are included. The patients receive conventional treatment (i.e warfarin for 3-6 months) and thereafter are included in the study. Patients are randomized in a parallel study design to receive double-blind oral treatment with 100 mg valproic acid or placebo twice daily, in addition to optimal conventional treatment. The event rate is monitored by Kaplan-Meyer statistics. The primary efficacy endpoint is the composite measure of either mortality, or recurrent deep venous thrombosis or pulmonary embolism. The study is event-driven to a total of 180 events in the placebo group. […] Thus, this study confirms the clinical efficacy and feasibility of using VPA for secondary prevention of venous thromboembolism.

[2] = tested on: local release of t-PA from the endothelium; test: Intermediate endpoint study: in vivo t-PA release in man (perfused-forearm model, Substance P); set-up: species or system human; details: for increase of total amount of t-PA released (AUC): patients with stable angina pectoris, 2 weeks, daily oral dose: Vorinostat 10 mg, Belinostat 65 mg, Givinostat 2 mg, Panobinostat 0.5 mg, PCI-24781 2 mg, JNJ-26481585 0.2 mg, Mocetinostat 2 mg, SB939 0.4 mg, CXD101 10 mg
Description: (§1) The study comprises 16 patients with stable angina pectoris. Patients are investigated before and after oral treatment with 10 mg Vorinostat (Zolinza®, Merck & Co., Inc, NJ, USA) daily for 2 weeks. The study has a randomized, cross-over design and t-PA release capacity is investigated before and after treatment, with each individual serving as his/her own control
The capacity for t-PA release is investigated in the perfused-forearm model that we have developed, which is the only method that permits a direct measurement of the local release of t-PA from the endothelium (Hrafnkelsdottir, T., et al. Lancet 352, 1597-1598 (1998), Wall, U., et al. Blood 91, 529-537 (1998)). Since t-PA has a rapid hepatic clearance, it is impossible to infer endothelial release rates from plasma levels obtained from standard venous samples. With the invasive model, however, net forearm t-PA release rates are calculated from arterio-venous concentration gradients of t-PA after correction for forearm plasma flow. Acute t-PA release responses are induced by intra-arterial infusions of Substance P (Bachem, Bubendorf, Switzerland), and the amount and protein secretion profile is used as a measure of t-PA release capacity.
as §1, with “pectoris and elevated serum levels of high-sensitivity C-reactive protein (hs-CRP) >3 mg/L.” for “pectoris.”, “100” for “10”, “valproic acid twice” for “Vorinostat (Zolinza®, Merck & Co., Inc, NJ, USA)”, “control.” for “control”
The capacity for t-PA release is investigated in the perfused-forearm model that we have developed, which is the only method that permit a direct measurement of the local release of t-PA from the endothelium (Hrafnkelsdottir, T., et al. Lancet 352, 1597-1598 (1998), Wall, U., et al. Blood 91, 529-537 (1998). Since t-PA has a rapid hepatic clearance, it is impossible to infer endothelial release rates from plasma levels obtained from standard venous samples.
With the invasive model, however, net forearm t-PA release rates are calculated from arterio-venous concentration gradients of t-PA after correction for forearm plasma flow. Acute t-PA release responses are induced by intra-arterial infusions of Substance P (Bachem, Bubendorf, Switzerland), and the amount and protein secretion profile is used as a measure of t-PA release capacity.

[3] = tested on: TNF-alpha suppressed t-PA production in HUVECs; test: Counter-acting TNF-alpha (0.1 ng/ml) suppression of t-PA in HUVEC; type: cell-based, human; details: for concentration completely normalizing TNF-alpha suppressed t-PA production / concentration partly reversing TNF-alpha suppression of t-PA production: TNF-alpha 0.1 ng/ml 48 h, compound last 24 h
Description: Human umbilical vein endothelial cells (HUVECs) were prepared and cultured as described in Example 1. Confluent HUVECs were exposed to low concentrations of TNF-alpha (0.1 ng/ml) (Sigma-Aldrich) for 24 h. Thereafter, medium was replaced by fresh EGM-2 containing TNF-alpha and low concentrations of belinostat (10 nM to 300 nM) and incubated for 24 h. After 24 h, cells and conditioned media were harvested. Total RNA was prepared and RNA and secreted protein quantified as in Example 1.
We have previously shown that proinflammatory cytokines e.g. TNF-alpha and IL-1b suppress t-PA production in endothelial cells. We then investigated if VPA could reverse a TNF-alpha suppressed t-PA response. Human umbilical vein endothelial cells (HUVECs) were prepared by collagenase treatment of fresh umbilical cords (Jaffe, E. A., et al. J Clin Invest 52, 2745-2756 (1973)) obtained from the maternity ward of the Sahlgrenska University hospital, Gothenburg, Sweden. Cells were cultured in EGM-2 medium (Lonza, Basel, Switzerland) and all experiments were performed in passage 1 of subcultivation. Confluent HUVECs were pre-treated with 0.1 ng/ml human recombinant TNF-alpha (Sigma-Aldrich) for 24 hours then exposed to optimal concentrations VPA in complete medium. After incubation with the VPA and TNF-alpha for an additional 24 hours, cells and conditioned media were harvested.
Total RNA was prepared using RNeasy Mini RNA kit (Qiagen, Hilden, Germany) and genomic DNA was removed using RNase-free DNase I set (Qiagen). Levels of t-PA mRNA were analyzed with real-time RT-PCR, performed on an Applied Biosystems 7500 Fast Real-Time PCR System using cDNA and Taqman reagents obtained from Applied Biosystems (Foster City, Calif., USA). Hypoxanthine phosphoribosyl transferase (HPRT, Assay number Hs99999909_m1, Applied Biosystems) was used as endogenous internal standard.
Endothelial cells in culture are known to constitutively secrete the majority of synthesized t-PA making conditioned media a suitable source for quantification of t-PA protein. Conditioned medium from cell cultures was collected, centrifuged (10,000×g, 10 min, 4° C.) to remove cell debris, transferred to fresh tubes and stored at −70° C. Concentrations of t-PA antigen in conditioned media were determined using the commercially available TriniLize t-PA antigen ELISA (Trinity Biotech, Bray, Ireland) according to the manufacturer's protocol.

[4] = daily oral dose: Vorinostat 10 mg, Givinostat 2 mg, Panobinostat 0.5 mg, PCI-24781 2 mg, JNJ-26481585 0.2 mg, Mocetinostat 2 mg, SB939 0.4 mg, CXD101 10 mg, Belinostat example prints 10 mg Vorinostat
[5] = HUVEC, present-tense Examples 12-18

Row | Compound | reduction of risk for recurrent venous thrombotic events, in addition to conventional therapy [1, 4] | increase of total amount of t-PA released (AUC) [2] | concentration completely normalizing TNF-alpha suppressed t-PA production ([3]; HUVEC) | concentration partly reversing TNF-alpha suppression of t-PA production ([3]; HUVEC) | concentrations needed to off-set the inhibition of TNF-alpha on t-PA expression ([3]; TNF-alpha treated endothelium) | concentration completely normalizing TNF-alpha suppressed t-PA production [3, 5] | concentration partly reversing TNF-alpha suppression of t-PA production [3, 5] | reduction of risk for recurrent venous thrombotic events, in addition to conventional therapy ([1]; cancer diagnosis and low grade inflammation, 100 mg valproic acid orally twice daily) | increase of total amount of t-PA released ([2]; stable angina pectoris and hs-CRP >3 mg/L, 100 mg valproic acid orally twice daily for 2 weeks) | concentration achieving complete normalization of TNF-alpha suppressed t-PA mRNA ([3]; HUVEC, TNF-alpha 0.1 ng/ml, VPA additional 24 h) | concentrations needed to reverse the effect of TNF-alpha on t-PA expression ([3]; TNF-suppressed cells)
1 | O=C(/C=C/c1cccc(S(=O)(=O)Nc2ccccc2)c1)NO [Belinostat] | approximately 30% | approximately 50% | 200 nM | 50 nM | 0.05 to 0.2 µM | – | – | – | – | – | –
2 | Cc1nn(C)cc1CN1CCC(c2ccc(C(=O)Nc3ccccc3N)cc2)CC1 [CXD101] | approximately 30% | approximately 50% | – | – | – | 300 nM | 10 nM | – | – | – | –
3 | CCN(CC)Cc1ccc2cc(COC(=O)Nc3ccc(C(=O)NO)cc3)ccc2c1.Cl [Givinostat] | approximately 30% | approximately 50% | – | – | – | 100 nM | 30 nM | – | – | – | –
4 | Cn1cc(CNCC2CCN(c3ncc(C(=O)NO)cn3)CC2)c2ccccc21 [JNJ-26481585, N-hydroxy-2-(4-((((1-methyl-1H-indol-3-yl)methyl)amino)methyl)piperidin-1-yl)pyrimidine-5-carboxamide] | approximately 30% | approximately 50% | – | – | – | 5 nM | 1 nM | – | – | – | –
5 | Nc1ccccc1NC(=O)c1ccc(CNc2nccc(-c3cccnc3)n2)cc1 [Mocetinostat] | approximately 30% | approximately 50% | – | – | – | 300 nM | 10 nM | – | – | – | –
6 | CN(C)Cc1c(C(=O)NCCOc2ccc(C(=O)NO)cc2)oc2ccccc12 [PCI-24781, 3-(dimethylaminomethyl)-N-[2-[4-(hydroxycarbamoyl)phenoxy]ethyl]-1-benzofuran-2-carboxamide] | approximately 30% | approximately 50% | – | – | – | 200 nM | 10 nM | – | – | – | –
7 | CCCC(CCC)C(=O)O [VPA, valproic acid] | – | – | – | – | – | – | – | approximately 30% | approximately 50% | 0.35 mM | below 0.35 mM
8 | O=C(CCCCCCC(=O)Nc1ccccc1)NO [Vorinostat] | approximately 30% | approximately 50% | 300 nM | 50 nM | – | – | – | – | – | – | –
